pEC50: −log10 of the molar value.
Target: T1, human AMPK α2β2γ3 (Homo sapiens, UniProt O43741+P54646+Q9UGI9)
T1 construct: expressed in transfected cells; host or cells: HEK293AD cells, MaxCyte bulk electroporation
Test: Primary cellular assay: γ3 associated phospho-Thr172 AMPK detection (custom pAMPK Surefire AlphaLISA) in α2β2γ3 bulk transiently transfected HEK293 cells
Format: cell-based
Conditions: activation of human AMPK α2β2γ3 (γ3 pThr172 AMPK signal) in transiently transfected HEK293 cells, 20 minutes compound incubation; for Emax: 20 min, read-out: Assay GMean Asy. Max (%); for pEC50: geometric mean EC50, read-out: Assay GMean EC50
Summary of the method: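 Transiently co-transfected (α2/β2/γ3 plasmids, electroporation) HEK293AD cells, plated 2 days in low-glucose DMEM+10% FBS, treated 20 min with compounds (11-point half-log dilutions). Lysates read by modified AlphaLISA capturing γ3 with pThr172 antibody detection. % effect relative to 30 μM HPE and DMSO; EC50 and Emax from curve fit.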

[1] = geometric mean of the asymptotic max

T1 sequence (P54646 whole entry): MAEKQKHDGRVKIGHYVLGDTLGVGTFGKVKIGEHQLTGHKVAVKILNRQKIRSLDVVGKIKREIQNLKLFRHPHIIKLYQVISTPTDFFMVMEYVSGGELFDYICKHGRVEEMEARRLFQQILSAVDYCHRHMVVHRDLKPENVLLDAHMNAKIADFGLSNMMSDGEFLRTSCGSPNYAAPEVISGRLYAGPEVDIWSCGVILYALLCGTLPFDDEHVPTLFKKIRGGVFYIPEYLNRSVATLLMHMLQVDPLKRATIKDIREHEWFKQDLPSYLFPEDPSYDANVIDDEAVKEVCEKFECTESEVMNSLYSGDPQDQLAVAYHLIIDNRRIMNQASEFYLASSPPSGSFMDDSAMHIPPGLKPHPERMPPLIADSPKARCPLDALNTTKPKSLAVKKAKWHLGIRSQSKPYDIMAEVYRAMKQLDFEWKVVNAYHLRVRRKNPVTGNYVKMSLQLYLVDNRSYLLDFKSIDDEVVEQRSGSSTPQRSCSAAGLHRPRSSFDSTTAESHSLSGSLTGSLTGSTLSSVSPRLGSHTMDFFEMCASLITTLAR
T1 sequence (O43741 whole entry): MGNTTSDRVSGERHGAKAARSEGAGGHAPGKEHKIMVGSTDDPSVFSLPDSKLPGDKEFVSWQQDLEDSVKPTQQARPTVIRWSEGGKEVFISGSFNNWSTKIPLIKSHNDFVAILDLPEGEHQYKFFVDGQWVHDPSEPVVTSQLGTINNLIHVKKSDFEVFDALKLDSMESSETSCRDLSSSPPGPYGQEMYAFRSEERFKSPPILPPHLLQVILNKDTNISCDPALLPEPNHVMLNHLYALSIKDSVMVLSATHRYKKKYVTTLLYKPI
T1 sequence (Q9UGI9 whole entry): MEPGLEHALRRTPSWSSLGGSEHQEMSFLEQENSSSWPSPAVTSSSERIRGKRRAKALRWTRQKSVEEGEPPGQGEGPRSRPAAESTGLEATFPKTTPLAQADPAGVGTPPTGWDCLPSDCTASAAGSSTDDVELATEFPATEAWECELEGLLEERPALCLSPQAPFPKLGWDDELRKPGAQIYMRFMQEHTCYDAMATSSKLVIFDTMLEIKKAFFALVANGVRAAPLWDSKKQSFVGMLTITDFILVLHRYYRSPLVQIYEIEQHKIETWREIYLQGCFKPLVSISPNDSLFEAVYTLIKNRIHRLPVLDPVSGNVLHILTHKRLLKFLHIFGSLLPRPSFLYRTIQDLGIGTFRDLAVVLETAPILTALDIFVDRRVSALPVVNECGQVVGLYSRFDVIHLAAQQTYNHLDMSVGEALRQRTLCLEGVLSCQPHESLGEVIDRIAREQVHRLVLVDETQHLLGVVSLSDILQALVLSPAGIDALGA

Structure (SMILES)	Emax [1] [%]	pEC50	Assay GMean Asy. Max (%) [1] [%]
CC(C)(CO)NC(=O)N1CC(Nc2ncc3c(n2)C(C)(c2cccc(Cl)c2F)CN(c2ncccc2F)C3=O)C1 (centres unmarked) [compound 87, 3-{[8-(3-chloro-2-fluorophenyl)-6-(3-fluoropyridin-2-yl)-8-methyl-5-oxo-5,6,7,8-tetrahydropyrido[4,3-d]pyrimidin-2-yl]amino}-N-(1-hydroxy-2-methylpropan-2-yl)azetidine-1-carboxamide, from P13 (ENANT-2)]	175	6.82	
CC1(c2cccc(Cl)c2F)CN(c2ncccc2F)C(=O)c2cnc(NC3CN(C(=O)N4CC5CC4C5)C3)nc21 (centres unmarked) [compound 89, 2-{[1-(2-azabicyclo[2.1.1]hexane-2-carbonyl)azetidin-3-yl]amino}-8-(3-chloro-2-fluorophenyl)-6-(3-fluoropyridin-2-yl)-8-methyl-7,8-dihydropyrido[4,3-d]pyrimidin-5(6H)-one,from P13 (ENANT-2)]	148	6.82	
CN(C)C(=O)CN1CC(Nc2ccc3c(c2F)C(C)(c2cccc(Cl)c2F)CN(c2nn(C)cc2F)C3=O)C1 (centres unmarked) [compound 90, 2-(3-{[4-(3-chloro-2-fluorophenyl)-5-fluoro-2-(4-fluoro-1-methyl-1H-pyrazol-3-yl)-4-methyl-1-oxo-1,2,3,4-tetrahydroisoquinolin-6-yl]amino}azetidin-1-yl)-N,N-dimethylacetamide, from P18 (ENANT-2)]	120	6.83	
Cn1cc(F)c(N2CC(C)(c3cccc(Cl)c3F)c3c(ccc(NC4CN(CC(=O)N5CCOCC5)C4)c3F)C2=O)n1 (centres unmarked) [compound 91, 4-(3-chloro-2-fluorophenyl)-5-fluoro-2-(4-fluoro-1-methyl-1H-pyrazol-3-yl)-4-methyl-6-({1-[2-(morpholin-4-yl)-2-oxoethyl]azetidin-3-yl}amino)-3,4-dihydroisoquinolin-1(2H)-one,from P18 (ENANT-2)]	99.7	6.77	
Cn1cc(F)c(N2CC(C)(c3cccc(Cl)c3F)c3c(ccc(NC4CN(CC(=O)N5CCC5)C4)c3F)C2=O)n1 (centres unmarked) [compound 92, 6-({1-[2-(azetidin-1-yl)-2-oxoethyl]azetidin-3-yl}amino)-4-(3-chloro-2-fluorophenyl)-5-fluoro-2-(4-fluoro-1-methyl-1H-pyrazol-3-yl)-4-methyl-3,4-dihydroisoquinolin-1(2H)-one, from P18 (ENANT-2)]		7.23	109
C[C@]1(c2cccc(Cl)c2F)CN(c2cc(N)ccn2)C(=O)c2cnc(NC3CN(C(=O)[C@@H]4C[C@@H]4F)C3)c(F)c21 [compound 93, (4R)-2-(4-aminopyridin-2-yl)-4-(3-chloro-2-fluorophenyl)-5-fluoro-6-({1-[(1S,2S)-2-fluorocyclopropane-1-carbonyl]azetidin-3-yl}amino)-4-methyl-3,4-dihydro-2,7-naphthyridin-1(2H)-one]	57.5	7.19	
Cn1cnc(N2C[C@](C)(c3cccc(Cl)c3F)c3c(cnc(NC4CN(C(=O)[C@@H]5C[C@@H]5F)C4)c3F)C2=O)c1 [compound 94, (4R)-4-(3-chloro-2-fluorophenyl)-5-fluoro-6-({1-[(1S,2S)-2-fluorocyclopropane-1-carbonyl]azetidin-3-yl}amino)-4-methyl-2-(1-methyl-1H-imidazol-4-yl)-3,4-dihydro-2,7-naphthyridin-1(2H)-one]	50.3	6.67	
Cn1cc(F)c(N2C[C@](C)(c3cccc(Cl)c3F)c3c(cnc(NC4CN(C(=O)[C@H]5C[C@H]5F)C4)c3F)C2=O)n1 [compound 99, (4R)-4-(3-chloro-2-fluorophenyl)-5-fluoro-6-({1-[(1R,2R)-2-fluorocyclopropane-1-carbonyl]azetidin-3-yl}amino)-2-(4-fluoro-1-methyl-1H-pyrazol-3-yl)-4-methyl-3,4-dihydro-2,7-naphthyridin-1(2H)-one]	49.7	7.15	
C[C@]1(c2cccc(Cl)c2F)CN(c2ncccc2F)C(=O)c2cnc(NC3CN(C(=O)N4CCN5CC(F)(F)C[C@@H]5C4)C3)c(F)c21 [compound 100, (4R)-4-(3-chloro-2-fluorophenyl)-6-({1-[(8aR)-7,7-difluorohexahydropyrrolo[1,2-a]pyrazine-2(1H)-carbonyl]azetidin-3-yl}amino)-5-fluoro-2-(3-fluoropyridin-2-yl)-4-methyl-3,4-dihydro-2,7-naphthyridin-1(2H)-one]	22.8	7.94	
Cn1cc(F)c(N2CC(C)(c3ccc(F)c(Cl)c3F)c3c(cnc(NC4CN(C(=O)C(C)(C)O)C4)c3F)C2=O)n1 (centres unmarked) [compound 101, 4-(3-chloro-2,4-difluorophenyl)-5-fluoro-2-(4-fluoro-1-methyl-1H-pyrazol-3-yl)-6-{[1-(2-hydroxy-2-methylpropanoyl)azetidin-3-yl]amino}-4-methyl-3,4-dihydro-2,7-naphthyridin-1(2H)-one, from P3 (ENANT-2)]	108	6.87	
Cc1c(F)ccc(C2(C)CN(c3ncccc3F)C(=O)c3cnc(NC4CN(C(=O)C5(O)CC5)C4)c(F)c32)c1F (centres unmarked) [compound 106, 4-(2,4-difluoro-3-methylphenyl)-5-fluoro-2-(3-fluoropyridin-2-yl)-6-{[1-(1-hydroxycyclopropane-1-carbonyl)azetidin-3-yl]amino}-4-methyl-3,4-dihydro-2,7-naphthyridin-1(2H)-one, from P5 (ENANT-2)]	70.5	7.47	
CC1(c2cccc(F)c2F)CN(c2ncccc2F)C(=O)c2cnc(NC3CN(C(=O)C4(O)CC4)C3)c(F)c21 (centres unmarked) [compound 108, 4-(2,3-difluorophenyl)-5-fluoro-2-(3-fluoropyridin-2-yl)-6-{[1-(1-hydroxycyclopropane-1-carbonyl)azetidin-3-yl]amino}-4-methyl-3,4-dihydro-2,7-naphthyridin-1(2H)-one, from P7 (ENANT-2)]	76.8	6.91	
CN(C)C(=O)CN1CCC(Nc2ncc3c(c2F)C(C)(c2cccc(Cl)c2F)CN(c2nn(C)cc2F)C3=O)C1 [compound 110, 2-[(3R)-3-{[5-(3-chloro-2-fluorophenyl)-4-fluoro-7-(4-fluoro-1-methyl-1H-pyrazol-3-yl)-5-methyl-8-oxo-5,6,7,8-tetrahydro-2,7-naphthyridin-3-yl]amino}pyrrolidin-1-yl]-N,N-dimethylacetamide, from P9 (DIAST-2)]	63.2	6.58	

— US12637461B2, “Compounds for the activation of AMPK” (PFIZER INC., priority 2022, dated 2026)
